From US20250108213A1, “COMPOSITIONS AND METHODS FOR ENHANCING THE EFFECT OF PLATINUM-BASED SYSTEMIC THERAPY” (NOVOCURE GMBH, priority 2023, published 2025)
“Also recorded” adds a separate entry of the source.

Key:
[1] = tested on: A2780 cells
Protocol: (§1) Cells were seeded on coverslip (22 mm diameter; 20×10^3 cells/coverslip for A2780 and A2780cis; 40×10^3 cells/coverslip for OVCAR-3). After overnight incubation, the coverslips were transferred into in vitro dishes containing 2 ml of media. TTFields at a frequency of 200 kHz (and intensity of 1 V/cm RMS) were applied to the cells for 72 hr using the INOVITRO system (Novocure, Haifa, Israel).
(§2) For efficacy outcomes (cell count, overall effect, and apoptosis), various concentrations of carboplatin (MCE MedChemExpress, HY-17393), olaparib (Cayman Chemical, 10621), or niraparib (Cayman Chemical, 20842) were applied, with or without TTFields.
(§3) Cell count was examined following treatment using Cytek Northern Lights flow cytometer (Cytek Biosciences, USA).
(§4) Treated cells were harvested, re-plated in 6-well plates (500 cells/well for A2780 and A2780cis; 1000 for cells/well OVCAR-3), and grown for 7 (A2780 and A2780cis) or 21 (OVCAR-3) days. Colonies were stained with 0.5% crystal violet, quantified with ImageJ, and expressed as percentages relative to control. Overall effect was calculated by multiplying colony formation with the corresponding cell count.
(§5) The surviving fraction predicted for an additive effect between TTFields and drug was calculated per the various drug concentrations by multiplying the actual measured surviving fractions for the individual treatments one by the other (SFcalculated additive=SFTTFields×SFdrug; SF are expressed as probability). Based on the calculated values, a trendline was determined. Additivity, synergy, or antagonism was defined when the calculated additive trendline overlapped, was above, or was below the actual measured line for TTFields+drug, respectively.
(§6) For quantifying the magnitude of TTFields-drug interaction, interaction index (Ii) values were calculated by the Bliss independence method using mortality values (Mx=1−SFx). Per the various drug concentrations, mortality predicted for an additive effect between TTFields and drug (Mcalculated additive=MTTFields+Mdrug−MTTFields×Mdrug) was divided by the actual measured mortality for TTFields+drug. Additivity was determined when the 95% confidence interval (CI) overlapped 1, synergy when 95% CI<1, and antagonism when 95% CI>1. Lower Ii values were considered indicative of higher synergy levels.

[2] = tested on: OVCAR-3 cells
Protocol: as §1, §2, §3, §4, §5, §6

[3] = tested on: A2780cis cells; assay: Cell count and overall effect (cell count x colony formation) after 72 h drug with or without TTFields; format: cell-based, human
Protocol: (§7) TTFields were applied to the cells for 72 h in the absence or presence of various concentrations of carboplatin. Synergy was defined when the observed value was lower than that predicted for an additive effect (presented by the red dotted line-calculated by multiplying the observed effects for TTFields alone with that for cisplatin alone).
The Cytotoxic effect was also determined. Treated cells were counted using a flow cytometer, and cytotoxic effect was calculated relative to control cells.
Treated cells were harvested, re-plated, and grown for an additional 7-14 days. Colonies were stained (0.5% crystal violet solution), counted, and clonogenic effect was calculated relative to control. The overall effect was calculated by multiplying the cytotoxic and clonogenic effects.
TTFields application was studied. Ovarian carcinoma cells A2780cis (cisplatin resistant cells) were treated for 72 h with TTFields at an intensity of 1 V/cm RMS and a frequency of 200 kHz using the inovitro system (See FIG. 11).
as §7, with “PARPi Olaparib and Niraparib.” for “carboplatin.”
The cytotoxic effect was studied. Treated cells were counted using a flow cytometer, and cytotoxic effect was calculated relative to control cells.
Treated cells were harvested, re-plated, and grown for an additional 7-14 days. Colonies were stained (0.5% crystal violet solution), counted, and clonogenic effect was calculated relative to control. Overall effect was calculated by multiplying the cytotoxic and clonogenic effects.
as §1, §2, §3, §4, §5
For quantifying the magnitude of TTFields-drug interaction, interaction index (Ii) values were calculated by the Bliss independence method using mortality values (Mx=1−SFx). Per the various drug concentrations, mortality predicted for an additive effect between TTFields and drug (Mcalculated additive=MTTFields+Mdrug−MTTFields×Mdrug) was divided by the actual measured mortality for TTFields+drug.

[4] = tested on: orthotopic ID8-fLuc (HRP) ovarian cancer tumors; assay: Overall survival of ovarian cancer bearing mice; format: in vivo
Protocol: Murine experiments were approved by the KU Leuven ethical committee (P082/2021). NIH guidelines for the Care and Use of Laboratory Animals were followed along with the 2010/62/EU directive and the ARRIVE (Animal Research: Reporting of In Vivo Research: Reporting of In Vivo Experiments) guidelines. Syngeneic ID8-fluc cells were harvested using 0.05% Trypsin-EDTA and inoculated (5×10^6 cells in 100 μL DPBS) intraperitoneally in female C57BL/6 mice (six- to eight-week-old, obtained from Envigo (Horst, The Netherlands)), leading to the development of a stage III-IV ovarian cancer model.
Seven days post inoculation, treatment was initiated. Mice were divided into four groups receiving either, sham-heat and vehicle (n=8), sham-heat and olaparib (n=8), TTFields and vehicle (n=7) or TTFields and olaparib (n=11). TTFields treatment (200 kHz) was administered continuously using the in vivo system (Novocure, Israel) by applying electrode arrays to the shaven abdomen of the mice as previously described. Sham-heat used analogous non-therapeutic arrays. Olaparib (MedKoo Biosciences, USA) was dissolved in a vehicle of 10% DMSO, 50% PEG300 and 40% DPBS and administered at a concentration of 50 mg/kg/day through daily oral gavage. Overall, therapeutic interventions lasted for four weeks, given in four cycles of five consecutive treatment days, followed by two days without treatment.
Mice were followed up and weighed daily once ascites development started as indicated by the appearance of abdominal distention. Mice were sacrificed when their body weight reached ≥32 grams as a surrogate endpoint for survival.

[5] = tested on: OVCAR-3 cells; assay: Apoptosis, Annexin V/7-AAD staining, flow cytometer; format: cell-based, human; settings: TTFields applied with drug
Protocol: Apoptosis: Treated cells were double-stained with FITC-conjugated annexin V (AnnV) and 7-aminoactinomycin D (7AAD), and data acquisition was performed with a flow cytometer.
Treated cells were stained with FITC-conjugated Annexin V (AnnV) and 7-Aminoactinomycin D (7-AAD) using a commercial kit (BioLegend, San Diego, CA, USA), according to the manufacturer's instruction. Data acquisition and analysis were done on the Cytek Northern Lights flow cytometer

[6] = TTFields 200 kHz, 1 V/cm RMS, 72 h
[7] = TTFields plus drug vs drug alone
[8] = TTFields plus drug vs drug alone, p<0.0001
[9] = drug alone, 72 h, compared among A2780, OVCAR-3, A2780cis

O=C(c1cc(Cc2n[nH]c(=O)c3ccccc23)ccc1F)N1CCN(C(=O)C2CC2)CC1 [olaparib]
type of TTFields-drug interaction, cytotoxic effect (cell count) [1]: synergistically
level of TTFields-drug synergy ([1]; A2780 relative to A2780cis cells, by Ii): higher
type of TTFields-drug interaction (measured vs calculated additive curve) ([1]; HRP cells, TTFields 200 kHz, 1 V/cm RMS, 72 h): high synergy
type of TTFields-drug interaction, overall effect (cell count and clonogenic effect) [1, 6]: synergistically
effect of TTFields on the drug-induced overall effect (cell count x colony formation) [1, 7]: significantly augmented
effect of TTFields on the drug-induced effect, cell count [1, 8]: significantly augmented
type of TTFields-drug interaction (measured vs calculated additive curve) ([2]; HRD cells, TTFields 200 kHz, 1 V/cm RMS, 72 h): additively
type of TTFields-drug interaction, overall effect (cell count and clonogenic effect) [2, 6]: additive
type of TTFields-drug interaction, cytotoxic effect (cell count) ([2]; TTFields 200 kHz, 1 V/cm RMS, 72 h, BRCA mutant): additively
effect of TTFields on the drug-induced overall effect (cell count x colony formation) [2, 7]: significantly augmented
effect of TTFields on the drug-induced effect, cell count [2, 8]: significantly augmented
sensitivity to drug (cell count dose response) [2, 9]: highest sensitivity
effect of TTFields on the drug-induced overall effect (cell count x colony formation) [3, 7]: significantly augmented
effect of TTFields on the drug-induced effect, cell count [3, 8]: significantly augmented
sensitivity to drug (cell count dose response) [3, 9]: highest resistance
type of TTFields-drug interaction (measured vs calculated additive curve) ([3]; platinum-resistant cells, TTFields 200 kHz, 1 V/cm RMS, 72 h): tendency to synergy
median overall survival, TTFields plus olaparib ([4]; TTFields (200 kHz) plus olaparib 50 mg/kg/day, control 62 days): 70 days
median overall survival, monotherapy ([4]; monotherapy, control 62 days): 64.5 days
survival compared to control mice, monotherapy ([4]; olaparib only, p=0.0401): survival benefit
survival, TTFields plus olaparib compared to control and monotherapies ([4]; p=0.0003 vs control, p=0.0003 vs olaparib, p=0.0130 vs TTFields): significantly prolonged
effect of TTFields on the apoptotic effect / apoptotic cell fraction [5]: enhanced; also recorded: elevation
